Legend:
Test in all cases: cryo-EM structure ([…] A)
[1] = molecular target: T1, Drosophila complex I (NADH-binding site at the FMN cofactor) (Drosophila melanogaster, UniProt Q9VMI3); details: co-purified; Dm1 active state
T1 construct: gene ND-51; native 43-subunit complex I, ~1 MDa monomer, purified from mitochondrial membranes of whole adult flies in DDM; no tag; with NADH dehydrogenase [ubiquinone] iron-sulfur protein 2; NADH dehydrogenase [ubiquinone] iron-sulfur protein 7; NADH-ubiquinone oxidoreductase chain 1
T1 sequence (Q9VMI3 34-474, one chain of several): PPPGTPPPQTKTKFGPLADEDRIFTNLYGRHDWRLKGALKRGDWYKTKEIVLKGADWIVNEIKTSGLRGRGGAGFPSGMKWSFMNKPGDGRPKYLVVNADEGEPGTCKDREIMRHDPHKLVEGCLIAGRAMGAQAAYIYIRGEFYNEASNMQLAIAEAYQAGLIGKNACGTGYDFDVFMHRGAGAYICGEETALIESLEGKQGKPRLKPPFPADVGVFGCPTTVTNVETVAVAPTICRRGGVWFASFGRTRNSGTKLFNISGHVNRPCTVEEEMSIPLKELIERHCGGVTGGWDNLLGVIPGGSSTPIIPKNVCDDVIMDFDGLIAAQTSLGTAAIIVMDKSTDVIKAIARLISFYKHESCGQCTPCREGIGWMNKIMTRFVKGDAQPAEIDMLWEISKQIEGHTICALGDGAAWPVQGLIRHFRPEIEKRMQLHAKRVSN

[2] = system: T2, Drosophila complex I (ubiquinone-binding site; subunits NDUFS2, NDUFS7, ND1, ND3, ND6); set-up: species or system Drosophila melanogaster; details: co-purified; Dm1 active state; partially inserted in ubiquinone channel; ubiquinone-9 or -10 referred to as Q9
T2 construct: gene ND-49; native 43-subunit complex I (14 core, 29 supernumerary), ~1 MDa monomer, purified from mitochondrial membranes of whole adult flies in DDM; no tag; NDUFA2 and NDUFC1 absent; with NADH dehydrogenase [ubiquinone] flavoprotein 1
T2 sequence (Q9V4E0 39-468): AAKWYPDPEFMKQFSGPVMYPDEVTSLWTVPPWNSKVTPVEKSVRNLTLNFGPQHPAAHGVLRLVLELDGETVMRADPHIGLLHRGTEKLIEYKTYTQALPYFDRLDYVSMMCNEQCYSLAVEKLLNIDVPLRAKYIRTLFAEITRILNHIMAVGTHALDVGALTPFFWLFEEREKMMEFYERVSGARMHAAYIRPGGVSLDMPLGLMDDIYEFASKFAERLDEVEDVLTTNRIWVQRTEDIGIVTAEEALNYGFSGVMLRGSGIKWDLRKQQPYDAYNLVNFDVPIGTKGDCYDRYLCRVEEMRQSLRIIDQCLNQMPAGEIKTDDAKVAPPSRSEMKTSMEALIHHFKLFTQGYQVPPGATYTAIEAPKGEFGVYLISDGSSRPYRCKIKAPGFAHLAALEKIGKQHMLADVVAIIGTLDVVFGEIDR
T2 sequence (Q9VXK7 40-221, further chain): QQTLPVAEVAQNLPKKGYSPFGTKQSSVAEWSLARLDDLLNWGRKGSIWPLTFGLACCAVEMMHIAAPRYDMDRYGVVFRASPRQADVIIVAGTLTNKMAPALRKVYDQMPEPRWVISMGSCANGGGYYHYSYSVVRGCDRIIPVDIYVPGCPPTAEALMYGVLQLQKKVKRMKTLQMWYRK
T2 sequence (C7DZL9 1-315, further chain): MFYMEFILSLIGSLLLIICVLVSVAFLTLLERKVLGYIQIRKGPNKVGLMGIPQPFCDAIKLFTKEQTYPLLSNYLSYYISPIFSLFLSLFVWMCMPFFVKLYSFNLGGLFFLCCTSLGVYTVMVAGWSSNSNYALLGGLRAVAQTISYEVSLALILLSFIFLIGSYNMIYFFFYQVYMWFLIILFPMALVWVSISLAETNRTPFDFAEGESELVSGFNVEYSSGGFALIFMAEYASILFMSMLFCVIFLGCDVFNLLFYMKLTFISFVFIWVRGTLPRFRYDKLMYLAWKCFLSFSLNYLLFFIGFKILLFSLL
T2 sequence (P18930 whole entry, further chain): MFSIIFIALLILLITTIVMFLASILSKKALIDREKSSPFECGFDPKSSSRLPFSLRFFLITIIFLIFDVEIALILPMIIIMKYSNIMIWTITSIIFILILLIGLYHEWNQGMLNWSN
T2 sequence (P18933 1-173, further chain): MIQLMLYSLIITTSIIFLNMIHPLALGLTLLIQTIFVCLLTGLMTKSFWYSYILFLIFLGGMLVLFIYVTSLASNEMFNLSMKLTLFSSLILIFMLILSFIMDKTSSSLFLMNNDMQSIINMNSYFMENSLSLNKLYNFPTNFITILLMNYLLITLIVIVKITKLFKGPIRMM

[3] = molecular target: T3, subunit NDUFA10 of Drosophila complex I (Drosophila melanogaster, UniProt P91929); assay type: binding; details: modelled in Dm1 map; identity taken from earlier work
T3 construct: gene ND-42; subunit within native 43-subunit complex I purified from mitochondrial membranes of whole adult flies; no tag
T3 sequence (P91929 61-407): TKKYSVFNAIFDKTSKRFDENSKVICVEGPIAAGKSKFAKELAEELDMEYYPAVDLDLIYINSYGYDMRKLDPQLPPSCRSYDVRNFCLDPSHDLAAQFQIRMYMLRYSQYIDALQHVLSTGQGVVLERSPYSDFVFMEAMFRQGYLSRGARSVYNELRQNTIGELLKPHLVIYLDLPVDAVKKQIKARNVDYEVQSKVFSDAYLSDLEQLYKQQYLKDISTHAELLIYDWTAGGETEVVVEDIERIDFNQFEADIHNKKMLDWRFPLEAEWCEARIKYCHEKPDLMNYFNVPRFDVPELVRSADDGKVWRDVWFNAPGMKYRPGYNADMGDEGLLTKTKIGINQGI

In the case of Cc1cc2nc3c(=O)[nH]c(=O)nc-3n(C[C@H](O)[C@H](O)[C@H](O)COP(=O)(O)O)c2cc1C [FMN], the “cryo-EM structure (3.28 A)” value [1] is reported as “The NADH-binding site at the flavin mononucleotide (FMN) cofactor”.

COC1=C(OC)C(=O)C(C/C=C(\C)CC/C=C(\C)CC/C=C(\C)CC/C=C(\C)CC/C=C(\C)CC/C=C(\C)CC/C=C(\C)CC/C=C(\C)CCC=C(C)C)=C(C)C1=O [Q9] was tested, and the “cryo-EM structure (3.28 A)” value [2] was “density for Q9 is observed within the site, although the Q9 is only partially inserted”.

In the case of Nc1nc2c(ncn2[C@H]2C[C@H](O)[C@@H](COP(=O)(O)OP(=O)(O)OP(=O)(O)O)O2)c(=O)[nH]1 [dGTP], the “cryo-EM structure (3.28 A)” value [3] is reported as “dGTP was modelled in subunit NDUFA10”.
